The results in this text go back to patent publication US20250073354A1, “COMPOSITIONS AND METHODS FOR DELIVERY OF AGENTS TO INNER EAR” (University of Rochester, priority 2021, published 2025).

The conditions of data set [1]: mouse, in vivo.
Experimental: Briefly, mice were anesthetized with a mixture of Ketamine/Xylazine (100 mg/kg, 10 mg/kg, respectively), after depth of anesthesia was confirmed by the cessation of reflexes, the incision area was properly shaved and sterilized with the aid of ethanol 70% swabs (Vitrex Medical A/S Herlev, DK), followed by iodine solution (Povidone Iodine 7,5% Henry Schein, Melville, NY, USA) applicated using cotton swabs. Before the onset of surgery, analgesics were applied, Lidocaine (0.05 ml, 0.2 mg/ml) was applied in the incision site and Buprenorphine (0.05 mg/kg) injected subcutaneously for post-surgical analgesia. After performing the skin incision around the occipital crest, the neck muscles were separated to reveal the CM underneath. […]
Immediately after the CM cannulation procedure, animals were moved to MRI scanner and head movement during scanning was minimized by restraining the animals on an MR-compatible stereotactic holder with ear bars. Body temperature was maintained at 37±0.5° C. with a thermostatically controlled waterbed and monitored, along with the respiratory rate by an MR compatible remote monitoring system (SA Instruments, NY, USA). […] Every 3D-CISS image was calculated as a maximum intensity projection from 4 realigned 3D-TrueFISP volumes with 4 orthogonal phase encoding directions (TR/TE 3.9/1.95 ms, Nex 2, FA 50°, FOV 19.2×12.8×12.8 mm, Matrix 192×128×128, BW 150 kHz). […]
Both DCE-MRI and CT time series data were motion corrected using Advanced Normalization Tools (ANTs ver.2.1.0) (Avants et al., 2008; Avants et al., 2011). Motion corrected time series in MRI images were converted into percent change from baseline-time series, calculated as the percent signal change from the averaged signal of baseline images.
Data set [2] is described as follows: CT time series of CSF tracer transport to the cochlea after intracisternal infusion. The format is in vivo, mouse. The method, then: During the CM cannulation procedure a custom-made head bar was fixed on the top of the animal skull. The head bar was designed to minimize undesired movements during the image acquisition (Yoshida et al., 2016), and fixed to an animal holder. […] Animal's respiration was monitored by using Biovet software. CT scans were performed with the Vector4CT system (MILabs, Utrecht, Netherlands) and scanning of the entire mouse head was performed in 4.56 min at an isotropic spatial resolution of 20 μm. The time series CT scanning protocol comprised one baseline scan (4.5 min) followed by intracisternal infusion of Omnipaque (350 mg I/ml, 1 μL/min, 10 μL, GE healthcare). Scans continued over 6 measurements (30 min) after intracisternal infusion of Omnipaque.
The time-intensity data was extracted using ITK snap with the ROIs described above after background subtraction and then normalized to maximal cisterna magna intensity. Dimensions of cochlear aqueduct were measured using the #X feature in ITK snap for #four animals. Distances between ROIs were calculated using their spatial coordinates.
To solve the equation (#ref), inventors implemented a simple finite difference scheme in Python (#ref) using NumPy and Scipy (#ref). Estimation of the dispersion coefficient was achieved by minimizing the L2-norm prediction error, using Scipy (#ref) E: […]

“Also recorded” adds a separate entry of the source.

Consider `O=C([O-])CN1CCN(CC(=O)[O-])CCN([C@H](CO)[C@H](O)CO)CCN(CC(=O)[O-])CC1.[Gd+3]` (racemic) [Gadovist, gadobutrol], for which, in data set [1], the “Time activity curves for tracer influx in mice lacking aqp4” value is “did not differ from wild type animals”, the “Time to reach 50 max” value is recorded as “significantly higher in the cochlea” and the “Tracer distribution to cochlea” value is on record as “reaches the cochlea”.
In the case of `CC(=O)N(CC(O)CO)c1c(I)c(C(=O)NCC(O)CO)c(I)c(C(=O)NCC(O)CO)c1I` (centres unmarked) [Omnipaque], the “Tracer concentration in scala vestibuli or cochlear nerve” value in data set [2] (during the 30 min of scanning) is recorded as “No clear rise; also recorded: no significant tracer arrives”. Moreover, the “Tracer distribution to scala tympani” value in data set [2] (intracisternal delivery, continuous CT scanning) was “reaches the base and middle region of the scala tympani”.
